Experimental data: patent US20120131687A1 (priority 2008, published 2012)

Legend:
cotton aphid seizure D2 [1] = target: T1, cotton aphid seizure D2 (Aphis gossypii, UniProt A0A9P0IRJ5, DEL620-651/K982T, form not given); assay: Electrophysiological analysis by two-electrode voltage clamp (TEVC) method using Xenopus laevis oocyte; format: cell-based; details: read-out: IC50 on cotton aphid seizure D2, protocol IV
Source text: Regarding four kinds of cotton aphid seizure splice variants (D1, D2, E1, E2), a gene optimal for producing a gene-recombinant nematode was selected by electrophysiological analysis by the two-electrode voltage clamp method (TEVC method) using an oocyte of Xenopus laevis.
In order to continuously maintain circulation and cleaning of water, female Xenopus laevis was reared in a water bath equipped with an air pump and a filtration device. For Xenopus laevis, a laboratory rearing line was purchased from NASCO (Fort Atkinson, Wis., USA), and adapted to a dry sample, and used in an experiment. Xenopus laevis was reared in tap water retained at a water temperature of 18° C., and a light/dark cycle of each 12 hours was artificially given. Xenopus laevis was anesthetized using a 2 g/l tolycaine aqueous solution, and subsequently cooled with an ice. […]
Using an amplifier TEC-03X manufactured by npi electronics (Tamm, Germany), and software Cellworks, an electrophysiological measurement was performed by the two-electrode voltage clamp method. Experimental data was recorded at room temperature (20 to 25° C.). […]
An activity of a compound was measured using protocol IV by the following procedure. […]
At each test concentration, an amplitude of a current waveform in last three times of continuous pulses was averaged, and a calculated current value was used for calculating an inhibition degree. […]

cotton aphid seizure D2 [2] = target: T1, cotton aphid seizure D2; assay: Whole cell patch clamp method using CHO cell expressing cotton aphid seizure D2; format: cell-based; details: 30 μM clofilium
Experimental: Using a CHO cell expressing cotton aphid seizure D2, an activity of a voltage-gated potassium channel was measured by a whole cell patch clamp method.
According to a general tissue culturing procedure, pGBB036 produced in Example 5 was transiently introduced into the CHO cell. In order to confirm that gene introduction is successful, a GFP gene which is a fluorescent marker was simultaneously introduced into the CHO cell. A ratio of pGBB036 and the marker gene was 10:1. It was possible to simply identify the cell for which gene introduction was successful with an incident-light fluorescence microscope. After cultured for 24 hours, the gene-introduced cell was dispensed, frozen, and immediately cryopreserved at −150° C. On the day before implementation of an electrophysiological experiment, the cryopreserved cell was suspended in a fresh medium again, and the cell was seeded on a cover glass having a diameter of 12 mm which was spread in a petri dish. The petri dish was retained at a temperature of 37° C. under the condition of CO2 at a 5% concentration. […]
Recording by the whole cell patch clamp method was implemented on one CHO cell. […] Recorded signals were all amplified with an amplifier PC-501A manufactured by Warner Instruments (Hamden, Conn., USA) and, thereafter, was digitalized at 10 kHz. […]

[3] = target: nematode functionally expressing cotton aphid seizure (Aphis gossypii, UniProt A0A9P0IRJ5, DEL620-651/K982T, form not given); assay: Feeding behavior activity (calcein AM intake) of recombinant nematode UG2346 functionally expressing cotton aphid seizure; format: in vivo; details: read-out: Activity to inhibit feeding behavior of nematode functionally expressing cotton aphid seizure (IC50), 0.03-100 μM
Sequence of nematode functionally expressing cotton aphid seizure (A0A9P0IRJ5 entry or part of it DEL620-651/K982T, form open): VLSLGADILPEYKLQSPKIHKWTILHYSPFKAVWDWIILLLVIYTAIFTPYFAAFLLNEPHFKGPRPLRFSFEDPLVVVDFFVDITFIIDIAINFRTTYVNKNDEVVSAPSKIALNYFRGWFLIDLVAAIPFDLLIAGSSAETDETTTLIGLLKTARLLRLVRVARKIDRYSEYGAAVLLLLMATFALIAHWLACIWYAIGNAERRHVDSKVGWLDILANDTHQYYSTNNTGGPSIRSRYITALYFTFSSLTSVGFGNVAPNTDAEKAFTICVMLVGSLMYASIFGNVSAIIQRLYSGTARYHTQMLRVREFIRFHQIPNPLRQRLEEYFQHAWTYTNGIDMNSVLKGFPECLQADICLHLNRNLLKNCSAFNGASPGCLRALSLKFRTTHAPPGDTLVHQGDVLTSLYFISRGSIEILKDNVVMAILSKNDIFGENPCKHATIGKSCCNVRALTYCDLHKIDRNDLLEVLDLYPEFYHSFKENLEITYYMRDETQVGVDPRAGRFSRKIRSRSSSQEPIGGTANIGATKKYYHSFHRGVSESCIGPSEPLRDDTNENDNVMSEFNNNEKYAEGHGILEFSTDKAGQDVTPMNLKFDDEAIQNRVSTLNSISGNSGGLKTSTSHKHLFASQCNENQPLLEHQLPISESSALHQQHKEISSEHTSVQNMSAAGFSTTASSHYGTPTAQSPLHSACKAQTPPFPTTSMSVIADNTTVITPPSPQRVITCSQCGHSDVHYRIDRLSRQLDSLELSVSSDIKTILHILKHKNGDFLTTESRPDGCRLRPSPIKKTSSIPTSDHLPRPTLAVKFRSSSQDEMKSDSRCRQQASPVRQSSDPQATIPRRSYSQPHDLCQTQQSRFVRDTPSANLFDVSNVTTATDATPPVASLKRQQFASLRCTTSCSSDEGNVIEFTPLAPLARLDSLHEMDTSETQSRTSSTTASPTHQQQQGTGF
Experimental: In the pharynx of a gene-altered nematode, change in electric activity in cotton aphid seizure influences on an action of the pharynx, that is, intake of food. Therefore, the ability to change an activity of cotton aphid seizure can be measured as the ability to change intake of food, of the gene-recombinant nematode.
Intake of food of the nematode was measured by a method of adding a fluorescent dye precursor to a medium. Specifically, since the fluorescent dye precursor orally taken by the nematode is enzymatically converted into a fluorescent dye in the gut, and a fluorescent signal emitted by the gene-recombinant nematode is increased, intake of food of the nematode can be measured as a fluorescent signal emitted by the nematode.
For measuring the activity to change a feeding behavior activity of a nematode expressing cotton aphid seizure in a functional form, a fluorescent dye precursor was added to a liquid medium containing the nematode expressing cotton aphid seizure in a functional form, and intake of the fluorescent dye precursor orally ingested by the nematode was detected as a fluorescent signal emitted by the nematode. When intake of the fluorescent dye precursor was defined as a feeding behavior activity, an influence of a test substance on a feeding behavior activity was assessed as an influence, on an activity of cotton aphid seizure. […]

Aphis gossypii = assay: Pesticidal activity test on artificial feed; format: in vivo; details: 50 ppm in artificial feed, six days, controlling value of 30% or more = active
Experimental: Then, according to the same manner as that of the method described in Handbook of Insect Rearing Vol. 1 (Elsevier Science Publishers 1985) pp. 35 to pp. 36 except that a test compound dissolved in DMSO to a final concentration of 50 ppm was added at 0.5% volume of the artificial feed, and components were mixed, Aphis gossypii was reared. […] Controlling value(%)={1−(Cb×Tai)/(Cai×Tb)}×100 Letters in the equation represent the following meanings. Cb: Number of surviving worms before treatment in non-treated section Cai: Number of surviving worms at observation in non-treated section Tb: Number of surviving worms before treatment in treated section Tai: Number of surviving worms at observation in treated section

cotton aphid seizure D2 [4] = target: T1, cotton aphid seizure D2; assay: Electropharyngeogram of recombinant nematode UG2242 expressing cotton aphid seizure D2; format: in vivo
Experimental: By recording a electropharyngeogram using UG2242 which is a transient transformed line, and UG2346 which is a stable transformed line, it was confirmed that the introduced cotton aphid seizure gene was expressed in a functional form.
An imago of a nematode reared at 20° C. was prepared. Using Dent's saline (composition in mM; D-glucose 10 mM, HEPES 10 mM, NaCl 140 mM, KCl 6 mM, CaCl2 3 mM, MgCl2 1 mM, pH 7.4) containing 20 mM serotonin promoting pumping as a chamber internal solution, the nematode was placed into the chamber. Aspiration was performed until the Dent's saline which is a chamber internal solution was contacted with an electrode in a micropipette. After mild aspiration, a head of the nematode was inserted into a tip of a pipette for recording. Data was obtained with an amplifier (Multiclamp 700-A, Axon instruments) and an A/D converter (Digidata 1322A, Axon instruments).

nematode = details: Drinking Assay, WO 01/88532; cited from earlier work

T1 sequence (A0A9P0IRJ5 entry or part of it DEL620-651/K982T, form open): as above

Molecule: CN(CCOc1ccc(NS(C)(=O)=O)cc1)CCc1ccc(NS(C)(=O)=O)cc1 [Dofetilide]
- IC50 (cotton aphid seizure D2 [1]): ~23 µM

Molecule: CCCCCCC[N+](CC)(CC)CCCCc1ccc(Cl)cc1.Cc1ccc(S(=O)(=O)[O-])cc1 [clofilium]
- activity of a channel inhibited relative to non-treatment (cotton aphid seizure D2 [2]): 86%
- IC50 [3]: 4 µM
- IC50 (cotton aphid seizure D2 [1]): ~1 µM
- Result of determination of insecticidal activity (Aphis gossypii): Having insecticidal activity
- length of a potential waveform in electropharyngeogram (cotton aphid seizure D2 [4]; 5 μM treatment for 5 minutes): significantly increased
- potential waveform in electropharyngeogram (cotton aphid seizure D2 [4]; 5 μM treatment, after 15 minutes): the same potential waveform as that of a wild-type

Molecule: CN(C)CCCN1c2ccccc2CCc2ccc(Cl)cc21 [clomipramine]
- food intake by a nematode (nematode): increases food intake

Molecule: ivermectin
- food intake by a nematode (nematode): inhibits food intake
